# Laboratory results reported in paper PMC12693701, “Glucosinolate-Derived Metabolites from Barbarea vulgaris (Brassicaceae): Evaluation of Antimicrobial, Antioxidant, and Anti-Inflammatory Potentials” (Molecules, 2025).
# System: C. albicans ATCC 10231
# Assay: Microdilution MIC/MMC with resazurin
# Type: cell-based, Candida albicans
# Details: C. albicans ATCC 10231; compounds 1–8
# Procedure: (§1) The antimicrobial activity was evaluated against 15 microorganisms. This included 11 bacterial strains: four standard strains (Staphylococcus aureus ATCC 25923, Bacillus subtilis ATCC 6633, Bacillus pumilus NCTC 8241, and Escherichia coli ATCC 25922) and six clinical or environmental isolates (Staphylococcus aureus, Escherichia coli, Bacillus cereus, Proteus mirabilis, Salmonella enterica, and Klebsiella pneumoniae). One probiotic strain, Bifidobacterium animalis subsp. lactis was tested. In addition, four fungal strains, Candida albicans ATCC 10231, Trichoderma viride ATCC 13233, Aspergillus flavus ATCC 9170, and Fusarium solani ATCC 11712 were tested. The bacterial strains were kept in glycerol stock at −80 °C and the fungal strains in paraffin oil stock at 4 °C.
# (§2) Bacterial and yeast suspensions were prepared using the direct colony method, as previously described by Andrews. The turbidity of the initial suspensions was adjusted to match the 0.5 McFarland standard using a densitometer (Biosan, Riga, Latvia), corresponding to approximately 10^8 colony-forming units (CFU)/mL for bacterial cells and 10^6 CFU/mL for yeast cells. Subsequently, 1:100 dilutions of the initial suspensions were prepared in sterile 0.85% saline. Fungal spore suspensions were obtained by gently harvesting spores from agar slopes containing mature mycelial growth. The collected spore suspensions were then diluted 1:1000 in sterile 0.85% saline prior to use.
# (§3) Antimicrobial activity was evaluated by determining the minimum inhibitory concentration (MIC) and minimum microbicidal concentration (MMC) using the microdilution plate method with resazurin as an indicator [28]. In the 96-well plates, 100 μL of Mueller–Hinton broth (Torlak, Belgrade, Serbia) for bacterial testing and Sabouraud broth (Torlak, Belgrade, Serbia) for fungal testing were dispensed into each well. The compounds under investigation were initially dissolved in a 10% dimethyl sulfoxide (DMSO) solution, followed by dilution in sterile distilled water, resulting in a working compound solution containing 1% DMSO. A 100 μL aliquot of the stock solution of the tested compound was added to the first row, and twofold serial dilutions were then carried out using a multichannel pipette. The resulting concentration range was from 5 to 0.039 mg/mL. The inoculated microtiter plates were incubated at 37 °C for 24 h for bacteria, at 28 °C for 48 h for yeasts, and at 28 °C for 72 h for molds.
# (§4) Each test also included growth control and sterility control. All tests were conducted in duplicate. MIC was defined as the lowest concentration of tested compounds that prevented resazurin color change from blue to pink. For molds, MIC values of the tested compound were determined as the lowest concentration that inhibited visible mycelia growth. MMC was determined by inoculation of the nutrient agar medium by plating […] of samples from wells, where no indicator color change was recorded. At the end of the incubation period, the lowest concentration with no growth (no colony) was defined as MMC.
# (§5) Doxycycline, ampicillin and amphotericin B (- Sigma-Aldrich, St. Louis, MO, USA) and ketoconazole (Hemofarm A.D., Vršac, Serbia) were dissolved in a nutrient liquid medium. Doxycycline is a broad-spectrum antibiotic effective against both aerobic and anaerobic Gram-positive and Gram-negative bacteria. Ampicillin, a beta-lactam antibiotic, primarily targets Gram-positive bacteria but also some Gram-negative strains. Amphotericin B is an antifungal drug often used for serious systemic fungal infections and is one of the effective treatments for fungal infections caused by Aspergillus sp. Ketoconazole is an antifungal agent used to inhibit the growth of Candida species.
row,Compound,MMC
1,"O=C1NCC(c2ccccc2)S1 (stereo not shown) [Compound 6, 5-phenyl-1,3-thiazolidin-2-one]",>5 mg/mL
2,"CSC(=S)NCCc1ccc(O)cc1 [Compound 2, methyl-4-hydroxyphenylethyl dithiocarbamate]",>5 mg/mL
3,"CSC(=S)NCCc1ccccc1 [Compound 1, Methyl phenethylcarbamodithioate]",>5 mg/mL
4,"O=C(O)C1CSC(=S)N1 (stereo not shown) [Compound 3, 2-Thioxothiazolidine-4-carboxylic Acid]",1.25 mg/mL

# Same assay, conditions: Candida albicans, ATCC10231; C. albicans ATCC 10231; compounds 1–8; read-out: MIC
row,Compound,MIC
1,"O=C1NCC(c2ccccc2)S1 (stereo not shown) [Compound 6, 5-phenyl-1,3-thiazolidin-2-one]",> 5000 µg/mL
2,"CSC(=S)NCCc1ccc(O)cc1 [Compound 2, methyl-4-hydroxyphenylethyl dithiocarbamate]",2500 µg/mL
3,"CSC(=S)NCCc1ccccc1 [Compound 1, Methyl phenethylcarbamodithioate]",1250 µg/mL
4,"O=C(O)C1CSC(=S)N1 (stereo not shown) [Compound 3, 2-Thioxothiazolidine-4-carboxylic Acid]",312 µg/mL

# Target: T1, Type I-B soybean lipoxygenase (Glycine max, UniProt P08170)
# T1 sequence (P08170 1-839): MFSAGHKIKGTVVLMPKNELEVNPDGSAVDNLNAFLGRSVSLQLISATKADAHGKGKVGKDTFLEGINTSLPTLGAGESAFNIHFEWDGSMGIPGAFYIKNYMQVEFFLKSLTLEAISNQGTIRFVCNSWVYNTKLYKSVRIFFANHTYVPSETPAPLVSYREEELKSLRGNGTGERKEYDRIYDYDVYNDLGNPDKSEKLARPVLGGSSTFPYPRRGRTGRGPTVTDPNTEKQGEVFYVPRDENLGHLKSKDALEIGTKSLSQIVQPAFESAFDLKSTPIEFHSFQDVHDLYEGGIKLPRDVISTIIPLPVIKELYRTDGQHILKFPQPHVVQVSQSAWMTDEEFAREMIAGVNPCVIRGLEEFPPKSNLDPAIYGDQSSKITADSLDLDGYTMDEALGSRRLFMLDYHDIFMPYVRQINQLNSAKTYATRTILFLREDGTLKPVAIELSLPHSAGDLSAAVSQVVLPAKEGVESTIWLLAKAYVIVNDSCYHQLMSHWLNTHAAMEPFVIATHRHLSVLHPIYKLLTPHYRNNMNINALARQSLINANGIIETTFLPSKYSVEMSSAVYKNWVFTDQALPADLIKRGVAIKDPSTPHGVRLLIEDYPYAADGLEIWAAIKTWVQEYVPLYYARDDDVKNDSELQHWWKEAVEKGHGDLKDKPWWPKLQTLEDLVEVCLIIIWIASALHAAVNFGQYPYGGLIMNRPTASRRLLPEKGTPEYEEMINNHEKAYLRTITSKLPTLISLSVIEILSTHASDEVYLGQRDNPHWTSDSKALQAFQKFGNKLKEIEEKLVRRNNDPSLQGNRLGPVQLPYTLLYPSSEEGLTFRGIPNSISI
# Assay: LOX inhibition assay
# Type: biochemical
# Details: 100 µM; mean ± SD; read-out: Percentage of LOX Inhibition
# Procedure: Type I-B soybean lipoxygenase is a commonly used enzyme for studying the anti-inflammatory properties of various compounds [19]. The lipoxygenase (LOX) inhibition assay measures the enzyme’s ability to convert sodium linoleate to 13-hydroperoxylinoleic acid. The inhibition of the enzyme by the investigated compounds was determined by measuring the absorbance at 234 nm for each prepared sample. Specifically, the test compound, Tris buffer, an enzyme solution (5 × 10^3 units/mL in saline), and sodium linoleate (3 mM in Tris buffer, pH 9), were added to a UV cuvette, and the absorbance was recorded. […] All measurements were performed in triplicate.
row,Compound,inhibition at 100 µM
1,"O=C1NCC(c2ccccc2)S1 (stereo not shown) [Compound 6, 5-phenyl-1,3-thiazolidin-2-one]",34.6 ± 0.4%
2,"CSC(=S)NCCc1ccc(O)cc1 [Compound 2, methyl-4-hydroxyphenylethyl dithiocarbamate]",55.5 ± 0.1%
3,"CSC(=S)NCCc1ccccc1 [Compound 1, Methyl phenethylcarbamodithioate]",47.5 ± 1.5%
4,"O=C(O)C1CSC(=S)N1 (stereo not shown) [Compound 3, 2-Thioxothiazolidine-4-carboxylic Acid]",23.8 ± 0.8%

# Same assay, conditions: mean ± SD
row,Compound,IC50
1,"CSC(=S)NCCc1ccc(O)cc1 [Compound 2, methyl-4-hydroxyphenylethyl dithiocarbamate]",97.4 ± 1.3 µM
2,"CSC(=S)NCCc1ccccc1 [Compound 1, Methyl phenethylcarbamodithioate]",125.5 ± 0.4 µM

# System: B. animalis subsp. lactis
# Assay: Microdilution MIC/MMC with resazurin
# Type: cell-based, Bifidobacterium animalis subsp. lactis
# Details: B. animalis subsp. lactis; compounds 1–8
# Procedure: as §1, §2, §3, §4, §5
row,Compound,MMC
1,"O=C1NCC(c2ccccc2)S1 (stereo not shown) [Compound 6, 5-phenyl-1,3-thiazolidin-2-one]",>5 mg/mL
2,"CSC(=S)NCCc1ccc(O)cc1 [Compound 2, methyl-4-hydroxyphenylethyl dithiocarbamate]",0.625 mg/mL
3,"CSC(=S)NCCc1ccccc1 [Compound 1, Methyl phenethylcarbamodithioate]",2.5 mg/mL
4,"O=C(O)C1CSC(=S)N1 (stereo not shown) [Compound 3, 2-Thioxothiazolidine-4-carboxylic Acid]",2.5 mg/mL

# Same assay, conditions: Bifidobacterium animalis; B. animalis subsp. lactis; compounds 1–8; read-out: MIC
row,Compound,MIC
1,"O=C1NCC(c2ccccc2)S1 (stereo not shown) [Compound 6, 5-phenyl-1,3-thiazolidin-2-one]",> 5000 µg/mL
2,"CSC(=S)NCCc1ccc(O)cc1 [Compound 2, methyl-4-hydroxyphenylethyl dithiocarbamate]",78 µg/mL
3,"CSC(=S)NCCc1ccccc1 [Compound 1, Methyl phenethylcarbamodithioate]",1250 µg/mL
4,"O=C(O)C1CSC(=S)N1 (stereo not shown) [Compound 3, 2-Thioxothiazolidine-4-carboxylic Acid]",625 µg/mL

# System: not listed separately
# Assay: DPPH radical scavenging assay
# Details: 25 µM, 20 min; mean ± SD
# Procedure: The DPPH assay was used to assess the ability of the tested compounds to scavenge reactive radical species. Stock solutions of the investigated compounds were prepared in DMSO and then diluted with methanol to a final volume of 1000 µL. An equal volume of a 50 µM DPPH solution in methanol was then added to the prepared mixture. The final concentrations of the test compounds were 25, 50, and 100 µM. After thorough mixing, the samples were incubated in the dark at room temperature for 20 to 60 min. Methanol was used as a blank, and absorbance was measured at 517 nm after incubation. All measurements were performed in triplicate.
row,Compound,DPPH Scavenging Ability
1,"O=C1NCC(c2ccccc2)S1 (stereo not shown) [Compound 6, 5-phenyl-1,3-thiazolidin-2-one]",3.1 ± 0.6%
2,"CSC(=S)NCCc1ccc(O)cc1 [Compound 2, methyl-4-hydroxyphenylethyl dithiocarbamate]",11.9 ± 0.7%
3,"CSC(=S)NCCc1ccccc1 [Compound 1, Methyl phenethylcarbamodithioate]",1.6 ± 1.2%
4,"O=C(O)C1CSC(=S)N1 (stereo not shown) [Compound 3, 2-Thioxothiazolidine-4-carboxylic Acid]",1.0 ± 0.3%

# Same assay, conditions: 25 µM, 60 min; mean ± SD
row,Compound,DPPH Scavenging Ability
1,"O=C1NCC(c2ccccc2)S1 (stereo not shown) [Compound 6, 5-phenyl-1,3-thiazolidin-2-one]",3.0 ± 0.7%
2,"CSC(=S)NCCc1ccc(O)cc1 [Compound 2, methyl-4-hydroxyphenylethyl dithiocarbamate]",12.0 ± 0.4%
3,"CSC(=S)NCCc1ccccc1 [Compound 1, Methyl phenethylcarbamodithioate]",1.8 ± 1.5%
4,"O=C(O)C1CSC(=S)N1 (stereo not shown) [Compound 3, 2-Thioxothiazolidine-4-carboxylic Acid]",1.1 ± 0.5%

# Same assay, conditions: 50 µM, 20 min; mean ± SD
row,Compound,DPPH Scavenging Ability
1,"O=C1NCC(c2ccccc2)S1 (stereo not shown) [Compound 6, 5-phenyl-1,3-thiazolidin-2-one]",4.2 ± 0.8%
2,"CSC(=S)NCCc1ccc(O)cc1 [Compound 2, methyl-4-hydroxyphenylethyl dithiocarbamate]",15.6 ± 0.3%
3,"CSC(=S)NCCc1ccccc1 [Compound 1, Methyl phenethylcarbamodithioate]",2.5 ± 1.1%
4,"O=C(O)C1CSC(=S)N1 (stereo not shown) [Compound 3, 2-Thioxothiazolidine-4-carboxylic Acid]",1.9 ± 0.8%

# Same assay, conditions: 50 µM, 60 min; mean ± SD
row,Compound,DPPH Scavenging Ability
1,"O=C1NCC(c2ccccc2)S1 (stereo not shown) [Compound 6, 5-phenyl-1,3-thiazolidin-2-one]",4.6 ± 0.6%
2,"CSC(=S)NCCc1ccc(O)cc1 [Compound 2, methyl-4-hydroxyphenylethyl dithiocarbamate]",15.7 ± 1.4%
3,"CSC(=S)NCCc1ccccc1 [Compound 1, Methyl phenethylcarbamodithioate]",2.4 ± 1.4%
4,"O=C(O)C1CSC(=S)N1 (stereo not shown) [Compound 3, 2-Thioxothiazolidine-4-carboxylic Acid]",2.1 ± 1.1%

# Same assay, conditions: 100 µM, 20 min; mean ± SD
row,Compound,DPPH Scavenging Ability
1,"O=C1NCC(c2ccccc2)S1 (stereo not shown) [Compound 6, 5-phenyl-1,3-thiazolidin-2-one]",5.9 ± 0.9%
2,"CSC(=S)NCCc1ccc(O)cc1 [Compound 2, methyl-4-hydroxyphenylethyl dithiocarbamate]",24.9 ± 1.1%
3,"CSC(=S)NCCc1ccccc1 [Compound 1, Methyl phenethylcarbamodithioate]",2.6 ± 1.2%
4,"O=C(O)C1CSC(=S)N1 (stereo not shown) [Compound 3, 2-Thioxothiazolidine-4-carboxylic Acid]",7.8 ± 1.8%

# Same assay, conditions: 100 µM, 60 min; mean ± SD
row,Compound,DPPH Scavenging Ability
1,"O=C1NCC(c2ccccc2)S1 (stereo not shown) [Compound 6, 5-phenyl-1,3-thiazolidin-2-one]",5.8 ± 1.4%
2,"CSC(=S)NCCc1ccc(O)cc1 [Compound 2, methyl-4-hydroxyphenylethyl dithiocarbamate]",25.2 ± 1.6%
3,"CSC(=S)NCCc1ccccc1 [Compound 1, Methyl phenethylcarbamodithioate]",2.9 ± 1.7%
4,"O=C(O)C1CSC(=S)N1 (stereo not shown) [Compound 3, 2-Thioxothiazolidine-4-carboxylic Acid]",7.9 ± 1.7%
